Where no end group is shown, it is not given here. Peg = not defined here
Key:
Assay type in all cases: binding
[1] = tested on: Millipore #07-449, anti-H3K27me3; assay: Histone peptide microarray, Millipore 07-449; details: Millipore 07-449 (anti-H3K27me3) hits, average signal per peptide
[2] = tested on: 53BP1 TTD; assay: Histone peptide microarray, 53BP1 TTD; details: 53BP1 TTD hits, average signal per peptide
How it was run: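 Printed histone peptide arrays; hybridization buffer 25 mM HEPES pH 7.5 / 100 mM NaCl / 0.5% BSA / 0.1% NP-40. Washes PBS + 0.1% Tween-20, 3 × 5 min per step. Detection: anti-GST 1:2,000 → AlexaFluor 647 secondary 1:5,000.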

[3] = tested on: CST 9733 (anti-H3K27me3); assay: Histone peptide microarray, CST 9733; details: histone peptide array signal normalized to the highest peptide average per subarray, hits; CST 9733 LOT:14 dilution 1:5,000
[4] = molecular target: T1, MPP8 chromo (Homo sapiens, UniProt Q99549); assay: Histone peptide microarray, MPP8 chromo; details: normalized histone peptide array signal, hits; hybridization with 1 M MPP8 chromo (so in the source); two subarrays
T1 construct: 50-118; made in house; host or cells: E. coli BL21
T1 sequence (Q99549 50-118): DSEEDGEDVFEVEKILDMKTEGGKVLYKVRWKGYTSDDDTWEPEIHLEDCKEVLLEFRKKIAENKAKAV
Experimental: (§1) Peptide microarrays were fabricated using an Aushon 2470 microarrayer and used as described ([Cornett et al., 2017]) with the following modifications. Protein and antibody hybridization steps were performed in buffer containing 25 mM HEPES pH 7.5, 100 mM NaCl, 0.5% BSA (w/v), and 0.1% NP-40. Slides were washed 3 × 5 min in PBS supplemented with 0.1% Tween-20 between each hybridization step. Antibodies used were primary anti-GST (Sigma #7781, 1:2,000 dilution) and an AlexaFluor 647-labeled secondary antibody (Life Technologies A-21245, 1:5,000 dilution). […] Full lists of peptides queried by array analysis are in Supplementary Table S2.

[5] = tested on: Active Motif #39161, anti-H3K9me3; assay: Histone peptide microarray, Active Motif 39161; details: Active Motif 39161 (anti-H3K9me3) hits
[6] = molecular target: T2, CDYL2 chromo (Homo sapiens, UniProt Q8N8U2); assay: Histone peptide microarray, CDYL2 chromo; details: normalized histone peptide array signal, hits; hybridization with 1 M CDYL2 chromo (so in the source); two subarrays
T2 construct: 1-75; made in house; host or cells: E. coli BL21
T2 sequence (Q8N8U2 1-75): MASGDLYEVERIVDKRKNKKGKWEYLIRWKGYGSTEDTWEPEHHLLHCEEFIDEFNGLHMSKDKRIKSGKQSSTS
Experimental: as §1

[7] = tested on: Abcam #ab8895, anti-H3K4me1; assay: Histone peptide microarray, Abcam ab8895; details: Abcam ab8895 (anti-H3K4me1) hits, average signal per peptide
[8] = tested on: ABClonal #A2355, anti-H3K4me1; assay: Histone peptide microarray, ABclonal A2355; details: Abclonal A2355 (anti-H3K4me1) hits
Experimental: as §1

Row | Avg Signal [4] | Avg Signal [6] | Substance | Avg Signal [1] | Avg Signal [2] | Avg Signal [3] | Avg Signal [5] | Avg Signal [7] | Avg Signal [8]
1 | 0.4242 | 0.3091 | ARTK(Ac)QTARK(Me3)STGGK(Ac)APRK(Ac)QL-K(Biot)-NH2 [H3.1K4acK9me3K14acK18ac] | 0.04004 | 0.09657 | 0.01317 | 0.7316 |  | 
2 | 0.2515 | 0.1337 | ARTK(Me2)QTARK(Me2)STGGKA-Peg-Biot [H3.1K4me2K9me2] |  |  | 0.0004919 | 0.001292 | 0.2534 | 0.2431
3 | 0.2405 |  | ARTK(Ac)QTARK(Me2)STGGK(Ac)APRK(Ac)QL-K(Biot)-NH2 [H3.1K4acK9me2K14acK18ac] | 0.005667 | 0.5858 | 3.787e-5 |  | 0.0002166 | 
4 |  |  | AR(Me2a)TK(Me3)QTARK(Ac)STGGK(Ac)APRK(Ac)QL-K(Biot)-NH2 [H3.1R2me2aK4me3K9acK14acK18ac] | 0.02578 | 0.02297 | 0.007631 | 0.01091 | 0.04451 | 0.01872
5 | 0.04277 | 0.1727 | Ac-APRKQLATKAAR(Me2a)K(Me3)SAPSTGG-Peg-Biot [H3.3R26me2aK27me3] | 0.2433 | 0.1003 | 0.914 | 0.0032 | 0.0125 | 
6 |  |  | ARTK(Me3)QTARKSTGGKAPRK(Ac)QL-K(Biot)-NH2 [H3.1K4me3K18ac] | 0.03479 | 0.08895 | 0.006885 | 0.09175 | 0.01446 | 0.001684
7 | 0.1744 |  | ARTKQTAR(Me2s)K(Me)STGGKAPRKQL-K(Biot)-NH2 [H3.1R8me2sK9me1] |  | 0.2791 | 0.01277 | 0.003577 | 0.3635 | 
8 |  | 0.04723 | AGGK(Ac)AGK(Ac)DSGK(Ac)AKAKAVSR-Peg-Biot [H2A.Z.2K4acK7acK11ac] | 0.003296 |  |  | 0.02451 |  | 
9 | 0.04671 | 0.05586 | PEPAKSAPAPKKGSK(Ac)KAVTKAQKK-Peg-Biot (chain 2 KAVTKAQKK-{Peg-Biot}; not fully specified; reading uncertain) [Peptide H2BK15ac] | 0.004399 |  |  | 0.01254 | 0.0005218 | 0.00117
10 |  | 0.08888 | Ac-APRKQLATKAARK(Me2)SAPSTGG-Peg-Biot [Peptide H3.3K27me2] | 0.003304 | 0.3374 | 0.0115 |  | 0.0005313 | 
11 | 1 | 0.3941 | ARTKQTAR(Me2s)K(Me3)STGGKAPRKQL-K(Biot)-NH2 [H3.1R8me2sK9me3] | 0.05357 | 0.1271 | 0.01037 | 0.5557 | 0.1225 | 
12 |  | 0.4707 | Ac-SGRGK(Me)GGK(Me)GLGK(Me)GGAKRHRKVLR-Peg-Biot [H4K5me1K8me1K12me1] |  |  |  | 0.004623 | 0.06188 | 0.1176
13 | 0.4905 |  | ARTKQTARK(Me)STGGKAPRKQL-K(Biot)-NH2 [Peptide H3.1K9me1] | 0.001651 | 0.2555 |  | 0.000221 | 0.4772 | 
14 | 0.009322 |  | Ac-SGRGK(Me)GGK(Ac)GLGK(Me)GGAKRHRKVLR-Peg-Biot [H4K5me1K8acK12me1] | 0.001936 |  |  | 0.03017 | 0.02853 | 0.01549
15 | 0.6312 | 0.1889 | ARTKQTAR(Me2a)K(Me2)STGGKAPRKQL-K(Biot)-NH2 [H3.1R8me2aK9me2] |  | 0.547 | 0.0007823 | 0.006391 | 0.1269 | 
16 | 0.4258 |  | ARTKQTAR(Me2a)K(Me)STGGKAPRKQL-K(Biot)-NH2 [H3.1R8me2aK9me1] |  | 0.1501 |  | 0.00542 | 0.513 | 0.006716

Row | Avg Signal [4] | Avg Signal [6] | Substance | Avg Signal [1] | Avg Signal [2] | Avg Signal [3] | Avg Signal [5] | Avg Signal [7] | Avg Signal [8]
17 | 0.7317 | 0.2996 | ARTKQTARK(Me2)STGGKAPRKQL-K(Biot)-NH2 [H3.1K9me2 H3.1(1-20)] |  |  | 0.0005298 |  |  | 
18 |  | 0.1275 | Ac-APRKQLATKAARK(Me3)SAPSTGG-Peg-Biot [Peptide H3.3K27me3] | 0.2205 | 0.04567 | 1 | 0.01689 |  | 
19 | 0.6538 | 0.1904 | ARTKQTAR(Me2s)K(Me2)STGGKAPRKQL-K(Biot)-NH2 [H3.1R8me2sK9me2] |  | 0.3791 | 0.0002216 |  | 0.1111 | 
20 | 0.8941 | 0.425 | AR(Me2a)TKQTARK(Me2)STGGKAPRKQL-Peg-Biotin [H3.1R2me2aK9me2] | 0.0074 |  | 0.0005026 |  | 0.226 | 0.01048
21 |  |  | Ac-GKGGAKRHRK(Me2)VLRDNIQ-Peg-Biot [Peptide H4K20me2] |  | 1 | 0.000354 | 0.01321 | 0.06608 | 0.04168
22 | 0.04961 |  | ARTKQTARK(Me3)pSTGGKAPRKQL-K(Biot)-NH2 [H3.1K9me3S10p] | 0.03312 | 0.1329 |  | 0.1411 | 0.1409 | 
23 | 0.6556 | 0.363 | ARTK(Ac)QTARK(Me3)STGGKAPRKQL-K(Biot)-NH2 [H3.1K4acK9me3] | 0.01932 |  | 0.00836 | 0.7317 |  | 
24 | 0.07994 |  | ARTAQTARK(Me2)STGGKA-Peg-Biot [Peptide H3.1K4AK9me2] |  |  |  | 0.007885 |  | 
25 | 0.8021 | 0.3995 | ARTK(Me3)QTAR(Me2a)K(Me3)STGGKAPRKQL-K(Biot)-NH2 [H3.1K4me3R8me2aK9me3] | 0.06329 |  | 0.01316 | 0.5927 |  | 
26 | 0.07749 |  | ARTK(Ac)QTARK(Me)STGGK(Ac)APRK(Ac)QL-K(Biot)-NH2 [H3.1K4acK9me1K14acK18ac] | 0.004673 | 0.1278 |  |  | 0.5059 | 
27 | 0.09452 |  | Ac-APRKQLATK(Me3)AARKSAPATGG-Peg-K(Biot)-NH2 [Peptide H3.1K23me3] | 0.005165 |  | 5.2822e-5 | 0.01355 |  | 
28 | 0.5401 | 0.2455 | ARTKQTAR(Me)K(Me2)STGGKAPRKQL-K(Biot)-NH2 [H3.1R8me1K9me2] | 0.003186 | 0.4249 |  | 0.001142 | 0.138 | 0.001447
29 |  |  | ACitTK(Me2)QTARKSTGGKAPRKQL-K(Biot)-NH2 [H3.1Cit2K4me2] | 0.002853 | 0.6324 | 0.0001108 | 2.176e-5 | 0.2048 | 0.3053
30 | 0.4645 | 0.1809 | ARTK(Me3)QTARK(Me2)STGGKA-Peg-Biot [H3.1K4me3K9me2] | 0.04855 |  | 0.005297 | 0.02282 | 0.004396 | 
31 |  | 0.04591 | Ac-SGRGKGGKGLGKGGAK(Ac)RHRK(Ac)VLR-Peg-Biot [Peptide H4K16acK20ac] | 0.001622 |  |  | 0.03564 | 0.002797 | 0.000726

Source: publication PMC7160673, “A Degenerate Peptide Library Approach to Reveal Sequence Determinants of Methyllysine-Driven Protein Interactions” (Frontiers in Cell and Developmental Biology, 2020)
